# Assay results taken from US9486507B2, “Pro-coagulant compounds and methods of use thereof” (priority 2011, dated 2016).
# Key:
# Type in all cases: biochemical
# [1] = test system: FVIII deficient human plasma; assay: Rotational thromboelastometry (ROTEM) in FVIII-deficient human plasma; conditions: human HemA plasma (HRF)
# Protocol: Compounds of the present disclosure were tested by rotational thromboelastometry to evaluate coagulation parameters such as clotting time (CT), α-angle, clot formation time (CFT), maximum clot firmness (MCF). Briefly, lyophilized and citrated FVIII deficient human plasma (Siemens) was reconstituted with 1 mL of distilled water, allowed to stand for 20 min at RT and mixed well before use. Alternatively, an aliquot of citrated (non-lyophilized) FVIII deficient human plasma (HRF, George King, Precision Biologics, or real-time donors) was thawed for 10 min in a 37° C. water bath and when needed centrifuged at 2800 g for 5 min at 25° C. FVIII deficient plasma was spiked with lyophilized platelets (Helena Laboratories, final concentration 0.5×10^8 cells/ml) and compounds, FVIII, or both compound and FVIII. Dilutions of compounds of the present disclosure and controls, such as FVIII, were prepared in PBS (—Ca, —Mg). Next, 300 μl of the spiked plasma was transferred to a ROTEM cup already containing 20 μl of StarTEM (concentrated calcium chloride solution) and 20 μl of lipidated TF (American Diagnostica, final concentration 10 fM) or Kaolin (Sigma-Aldrich, final concentration 0.4 μg/ml) and recording was initiated. The cups were maintained at 37° C. during the testing.
# [2] = target: FIXa (Homo sapiens, UniProt P00740); assay: FXa generation assay with human FIXa; set-up: purchased Haematologic Technologies; conditions: class symbols
# [3] = test system: FVIII deficient human plasma; assay: Thrombin generation assay (TGA) in FVIII-deficient plasma; set-up: key to Thrombin Above Baseline (nM): 1-10 nM (1) or 1-29 nM (2) (+); 11-20 nM (1) or 30-59 nM (2) (++); 21-30 nM (1) or 60-90 nM (2) (+++); >30 nM (1) or >90 nM (2) (++++); At or about baseline (−)
# [4] = FXa generation assay, 10 nM hFIXa, 100 nM hFX
# [5] = Precision Biologics FVIII-deficient plasma (2), first Baseline (2) series, 2.5 μM
# [6] = Precision Biologics FVIII-deficient plasma (2), first Baseline (2) series, 5 μM
# [7] = Precision Biologics FVIII-deficient plasma (2), first Baseline (2) series, 10 μM
# [8] = Precision Biologics FVIII-deficient plasma (2), second Baseline (2) series, 2.5 μM
# [9] = Precision Biologics FVIII-deficient plasma (2), second Baseline (2) series, 5 μM
# [10] = Precision Biologics FVIII-deficient plasma (2), second Baseline (2) series, 10 μM
# [11] = Precision Biologics FVIII-deficient plasma (2), second Baseline (2) series, 20 μM
# FIXa, sequence (P00740 47-191 limits assumed): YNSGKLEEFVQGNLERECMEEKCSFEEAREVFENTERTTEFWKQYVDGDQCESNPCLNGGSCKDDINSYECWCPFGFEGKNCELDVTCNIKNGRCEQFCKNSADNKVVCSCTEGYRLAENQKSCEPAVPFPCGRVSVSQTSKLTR
# FIXa, sequence (P00740 227-461 limits assumed): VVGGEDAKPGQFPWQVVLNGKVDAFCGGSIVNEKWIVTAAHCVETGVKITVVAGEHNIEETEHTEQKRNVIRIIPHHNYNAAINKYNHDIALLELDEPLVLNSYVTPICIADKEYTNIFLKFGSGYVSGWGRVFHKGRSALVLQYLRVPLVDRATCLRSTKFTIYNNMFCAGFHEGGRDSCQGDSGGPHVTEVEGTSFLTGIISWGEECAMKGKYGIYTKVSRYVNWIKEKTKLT
Substance,"Vmax [2, 4]","Thrombin Above Baseline (nM) [3, 5]","Thrombin Above Baseline (nM) [3, 6]","Thrombin Above Baseline (nM) [3, 7]","Thrombin Above Baseline (nM) [3, 8]","Thrombin Above Baseline (nM) [3, 9]","Thrombin Above Baseline (nM) [3, 10]",other results
PRIrTVGPGSrSASGKLTCLASYCWLFWTGIA [Compound 23],(++++) ((++++)>3),,,,,,,"Clotting time, sec (avg.) ([1]; 2.5 μM): 983 s; α-angle, degrees (avg.) ([1]; 2.5 μM): 13 degrees; Clotting time, sec (avg.) ([1]; 5 μM): 673 s; α-angle, degrees (avg.) ([1]; 5 μM): 22 degrees; Clotting time, sec (avg.) ([1]; 10 μM): 486 s; α-angle, degrees (avg.) ([1]; 10 μM): 32 degrees; Clotting time, sec (avg.) ([1]; 20 μM): 472 s; α-angle, degrees (avg.) ([1]; 20 μM): 39 degrees"
PRSRTVGPGSRSASGKLTCLASYCWLFWTGIA,(++++) ((++++)>3),++ (11-20 nM (1) or 30-59 nM (2) (++)),+++ (21-30 nM (1) or 60-90 nM (2) (+++)),+++ (21-30 nM (1) or 60-90 nM (2) (+++)),,,,
PRSRTVGPGSRSASGKSTCLASYCWLFWTGIA,(++++) ((++++)>3),,,,++ (11-20 nM (1) or 30-59 nM (2) (++)),+++ (21-30 nM (1) or 60-90 nM (2) (+++)),++++ (>30 nM (1) or >90 nM (2) (++++)),"Thrombin Above Baseline (nM) [3, 11]: ++++ (>30 nM (1) or >90 nM (2) (++++))"
PSIRTVGPGSRSASGKLTCLASYCWLFWTGIA,(++++) ((++++)>3),+ (1-10 nM (1) or 1-29 nM (2) (+)),+ (1-10 nM (1) or 1-29 nM (2) (+)),+ (1-10 nM (1) or 1-29 nM (2) (+)),,,,
"PWRRFWAWNPRSLALSTWFGRGCD [Compound 8, reference compound]",,,,,,,,"TGA activity in the presence of FVIII ([3]; 0.1 U/mL FVIII, compound 7 100-6.3 uM, compounds 8 and 9 50-3.1 uM): competes with FVIII"
SRIRTVGPGSRSASGKLTCLASYCWLFWTGIA,(++++) ((++++)>3),++ (11-20 nM (1) or 30-59 nM (2) (++)),+++ (21-30 nM (1) or 60-90 nM (2) (+++)),++++ (>30 nM (1) or >90 nM (2) (++++)),,,,
SRIRTVGPGSRSASGKSTCLASYCWLFWTGIA,(++++) ((++++)>3),,,,+++ (21-30 nM (1) or 60-90 nM (2) (+++)),++++ (>30 nM (1) or >90 nM (2) (++++)),++++ (>30 nM (1) or >90 nM (2) (++++)),
SRIRTVSPGSRSASGKSTCLASYCWLFWTGIA,(++++) ((++++)>3),,,,+++ (21-30 nM (1) or 60-90 nM (2) (+++)),+++ (21-30 nM (1) or 60-90 nM (2) (+++)),++++ (>30 nM (1) or >90 nM (2) (++++)),"Thrombin Above Baseline (nM) [3, 11]: ++++ (>30 nM (1) or >90 nM (2) (++++))"
SRSRTVSPGSRSASGKSTCLASYCWLFWTGIA,(++++) ((++++)>3),,,,+++ (21-30 nM (1) or 60-90 nM (2) (+++)),++++ (>30 nM (1) or >90 nM (2) (++++)),++++ (>30 nM (1) or >90 nM (2) (++++)),
k-MeLeu-TCLASYCWLF,,,,,,,,"Thrombin Above Baseline (nM) ([3]; HRF FVIII-deficient plasma (1), 2.5 μM): + (1-10 nM (1) or 1-29 nM (2) (+)); Thrombin Above Baseline (nM) ([3]; HRF FVIII-deficient plasma (1), 5 μM): −; Thrombin Above Baseline (nM) ([3]; HRF FVIII-deficient plasma (1), 10 μM): −; Thrombin Above Baseline (nM) ([3]; HRF FVIII-deficient plasma (1), 20 μM): + (1-10 nM (1) or 1-29 nM (2) (+)); Vmax ([2]; FXa generation assay using human FIXa): (++++) ((++++)>3); Vmax ([2]; FXa generation assay, 10 nM hFIXa, 100 nM hFX, listed as SEQ ID NO: 232): (+++) ((+++)>2)"
